Assay results from US8906901B2, “Administration of dipeptidyl peptidase inhibitors” (priority 2005, dated 2014).

Test system: db/db (BKS.Cg—+Lepr^db/+Lepr^db) mice
Experiment: Plasma glucose after 21 days of administration in powder chow, alone or with pioglitazone
Assay type: in vivo
Details: male db/db mice, 21 days in chow, fed condition; 0.03% (w/w) succinate salt of Compound I and/or 0.0075% (w/w) pioglitazone hydrochloride; mean (n=7) ± SD
Text: Male db/db (BKS.Cg—+Lepr^db/+Lepr^db) mice (6 weeks of age, CLEA Japan (Tokyo, Japan)) were divided into 4 groups (n=7 in each group) comprising Group A to Group D. Group A had free access to CE-2 powder chow (CLEA Japan) for 21 days. […] During 21 days of administration of the powder chow, there were not significant differences in the administration amount of the powder chow in the above 4 groups. After 21 days of administration of the powder chow, blood samples were taken from the orbital veins of the mice by capillary pipette under feeding condition, and plasma glucose levels were enzymatically measured by using Autoanalyzer 7080 (Hitachi, Japan). The values in the table means average (n=7)±standard deviation.

Cn1c(=O)cc(N2CCC[C@@H](N)C2)n(Cc2cc(F)ccc2C#N)c1=O [Compound I, 2-[6-(3-Amino-piperidin-1-yl)-3-methyl-2,4-dioxo-3,4-dihydro-2H-pyrimidin-1-ylmethyl]-4-fluoro-benzonitrile]
Plasma Glucose: 410.3 ± 47.9 mg/dL
